Patent US20090221559A1 (priority 2005, published 2009)

How the values were obtained:
[1] = system: HCV replicon RNA replication in Huh-7 luc/neo (Huh-Luc) cells; assay: HCV replicon assay (stable replicon cell reporter assay, luciferase read-out); assay type: cell-based, HCV type 1b; conditions: Hepatitis C virus, Huh-7, 72 h, read-out: Replicon Assay EC50 (μM), Huh-Luc cells, incubation of three days, luciferase activity
Summary of the method: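 Three-day compound exposure used Huh-Luc cells, which harbour an autonomously replicating genotype 1b NS3-NS5B replicon expressing luciferase and neo^R. Luciferase signal served as the replication read-out, and dose-response curves came from several concentrations per compound.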

[2] = biological target: T1, HCV NS5B polymerase (His-tagged, C-terminal 21 amino acid deleted NS5B, HC-J4) (Hepatitis C virus genotype 1b, UniProt O92972); assay: NS5b polymerase assay (biochemical RdRp assay, 3H-GTP incorporation, SPA beads); set-up: species or system HCV genotype 1b; conditions: NS5B Polymerase Assay IC50 (μM)
T1 construct: The cDNA encoding NS5B amino acid 1-570 (HC-J4, genotype 1b); His tag (His6, from pET-21b) (C); made in house; host or cells: E. coli BL21 (DE3)
T1 sequence (O92972 2417-3000, looked up, stated change not applied): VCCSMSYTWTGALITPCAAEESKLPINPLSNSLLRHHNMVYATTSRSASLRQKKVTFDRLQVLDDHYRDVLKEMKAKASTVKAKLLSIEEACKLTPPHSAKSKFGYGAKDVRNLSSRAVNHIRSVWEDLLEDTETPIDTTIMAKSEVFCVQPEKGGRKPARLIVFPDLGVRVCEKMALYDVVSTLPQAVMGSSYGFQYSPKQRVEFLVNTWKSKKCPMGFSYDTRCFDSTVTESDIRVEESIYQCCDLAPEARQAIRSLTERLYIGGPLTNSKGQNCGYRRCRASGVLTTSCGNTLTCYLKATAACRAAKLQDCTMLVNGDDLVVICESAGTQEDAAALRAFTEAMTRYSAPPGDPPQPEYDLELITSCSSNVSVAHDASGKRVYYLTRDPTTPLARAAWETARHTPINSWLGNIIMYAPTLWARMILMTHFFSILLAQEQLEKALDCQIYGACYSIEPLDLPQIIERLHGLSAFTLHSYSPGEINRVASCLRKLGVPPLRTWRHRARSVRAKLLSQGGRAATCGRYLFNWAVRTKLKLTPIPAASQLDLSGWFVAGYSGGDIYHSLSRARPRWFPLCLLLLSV
Summary of the method: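 3H-GTP incorporation into newly made RNA was captured on SPA beads added in EDTA after 2 h at 25 °C. Compounds in DMSO met preformed enzyme–template complex (200 nM truncated His-NS5B, HC-J4 1b; biotin-oligo(rG13)/poly(rC)) for 15 min at RT, then 600 nM GTP, 5 mM MgCl2, Tris pH 7.5 started polymerization.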

SMILES | EC50 [1] | IC50 [2]
CC1(C)CC(=O)C2=C(C1)Nc1ccccc1NC2c1ccc(O)cc1 (stereo not shown) [compound 440, 3,3-dimethyl-11-(4-hydroxyphenyl)-2,3,4,5,10,11-hexahydro-1H-dibenzo[b,e][1,4]diazepin-1-one] | > 100 µM | > 133 µM
CC1(C)CC(=O)C2=C(C1)Nc1ccccc1NC2c1ccc(F)cc1F (stereo not shown) [compound 441, 11-(2,4-difluorophenyl)-3,3-dimethyl-2,3,4,5,10,11-hexahydro-1H-dibenzo[b,e][1,4]diazepin-1-one] | > 100 µM | > 133 µM
CC1(C)CC(=O)C2=C(C1)Nc1ccccc1NC2c1ccc(Oc2ccccc2Br)cc1 (stereo not shown) [compound 442, 11-[4-(2-bromophenoxy)phenyl]-3,3-dimethyl-2,3,4,5,10,11-hexahydro-1H-dibenzo[b,e][1,4]diazepin-1-one] | 2.71 µM | > 133 µM
CC1(C)CC(=O)C2=C(C1)Nc1ccccc1NC2c1ccc(OCc2ccccc2)cc1Cl (stereo not shown) [compound 443] | 1.78 µM | 0.312 µM
CC1(C)CC(=O)C2=C(C1)Nc1ccccc1NC2c1cc(Cl)c(OCc2ccccc2)c(Cl)c1 (stereo not shown) [compound 444, 11-[4-benzyloxy-3,5-dichlorophenyl]-3,3-dimethyl-2,3,4,5,10,11-hexahydro-1H-dibenzo[b,e][1,4]diazepin-1-one] | 4.45 µM | 33.2 µM
CC1(C)CC(=O)C2=C(C1)Nc1ccccc1NC2c1ccc(OCc2ccccc2)cc1OCc1ccccc1 (stereo not shown) [compound 445, 11-[2,4-dibenzyloxyphenyl]-3,3-dimethyl-2,3,4,5,10,11-hexahydro-1H-dibenzo[b,e][1,4]diazepin-1-one] | 1.98 µM | > 133 µM
CC1(C)CC(=O)C2=C(C1)Nc1ccccc1NC2c1cccc(Oc2ccccc2Br)c1 (stereo not shown) [compound 446, 11-[3-(2-bromophenoxy)phenyl]-3,3-dimethyl-2,3,4,5,10,11-hexahydro-1H-dibenzo[b,e][1,4]diazepin-1-one] | 4.12 µM | > 133 µM
CC1(C)CC(=O)C2=C(C1)Nc1ccccc1NC2c1c(Cl)cc(OCc2ccccc2)cc1Cl (stereo not shown) [compound 447, 11-(4-benzyloxy-2,6-dichlorophenyl)-3,3-dimethyl-2,3,4,5,10,11-hexahydro-1H-dibenzo[b,e][1,4]diazepin-1-one] | 2.52 µM | > 133 µM
CC1(C)CC(=O)C2=C(C1)Nc1ccccc1NC2c1ccc([N+](=O)[O-])cc1 (stereo not shown) [compound 448] | > 100 µM | > 133 µM
Cc1cc2c(cc1C)NC(c1ccc(Cl)c([N+](=O)[O-])c1)C1=C(CC(C)(C)CC1=O)N2 (stereo not shown) [compound 452] | 19.7 µM | > 42.7 µM
COc1ccc(C2Nc3ccc(C(=O)c4ccccc4)cc3NC3=C2C(=O)CC(C)(C)C3)cc1OC (stereo not shown) [compound 453] | 19.2 µM | > 42.7 µM
Cc1cc2c(cc1C)NC(c1c(F)cccc1F)C1=C(CC(C)(C)CC1=O)N2 (stereo not shown) [compound 454] | 3.44 µM | > 42.7 µM
CC1(C)CC(=O)C2=C(C1)Nc1cc(C(=O)c3ccccc3)ccc1NC2c1ccccc1Cl (stereo not shown) [compound 463] | 7.43 µM | > 33.3 µM
Cc1cc2c(cc1C)NC(c1ccc(Cl)cc1Cl)C1=C(CC(C)(C)CC1=O)N2 (stereo not shown) [compound 464, 11-(2,4-Dichlorophenyl)-2,3,4,5,10,11-hexahydro-3,3,7,8-tetramethyl-1H-dibenzo[b,e][1,4]diazepin-1-one] | 82.7 µM | > 133 µM
CC1(C)CC(=O)C2=C(C1)Nc1cc(Cl)c(Cl)cc1NC2c1ccc(Cl)cc1Cl (stereo not shown) [compound 465, 7,8-Dichloro-11-(2,4-dichlorophenyl)-2,3,4,5,10,11-hexahydro-3,3-dimethyl-1H-dibenzo[b,e][1,4]diazepin-1-one] | 3.84 µM | 60 µM
CC1(C)CC(=O)C2=C(C1)Nc1cc(F)c(F)cc1NC2c1ccc(Cl)cc1Cl (stereo not shown) [compound 466, 7,8-difluoro-11-(2,4-dichlorophenyl)-3,3-dimethyl-2,3,4,5,10,11-hexahydro-1H-dibenzo[b,e][1,4]diazepin-1-one] | 6.81 µM | 68.1 µM
COc1cc2c(cc1OC)NC(c1ccc(Cl)cc1Cl)C1=C(CC(C)(C)CC1=O)N2 (stereo not shown) [compound 467, 7,8-dimethoxy-11-(2,4-dichlorophenyl)-3,3-dimethyl-2,3,4,5,10,11-hexahydro-1H-dibenzo[b,e][1,4]diazepin-1-one] | 30 µM | > 133 µM
CC1(C)CC(=O)C2=C(C1)Nc1ccc(C#N)cc1NC2c1ccc(Cl)cc1Cl (stereo not shown) [compound 473] | 20 µM | 50 µM
O=C1C[C@@H](c2ccc3c(c2)OCO3)CC2=C1[C@H](c1cccnc1)Nc1ccccc1N2 [compound 476] | 22.9 µM | > 42.7 µM
CCn1c2ccccc2c2cc([C@@H]3Nc4ccccc4NC4=C3C(=O)C[C@@H](c3ccc(OC)c(OC)c3)C4)ccc21 [compound 477] | 4.49 µM | > 42.7 µM
CCn1c2ccccc2c2cc([C@@H]3Nc4ccccc4NC4=C3C(=O)C[C@@H](c3ccc(Cl)cc3)C4)ccc21 [compound 480] | 5.7 µM | > 42.7 µM
O=C1C[C@@H](c2ccccc2)CC2=C1[C@H](c1cc3c(cc1Br)OCO3)Nc1ccccc1N2 [compound 481] | 1.61 µM | > 42.7 µM

SMILES | EC50 [1] | IC50 [2]
O=C1C[C@@H](c2ccc(Cl)cc2)CC2=C1[C@H](c1c[nH]c3ccccc13)Nc1ccccc1N2 [compound 482] | 27 µM | > 42.7 µM
O=C1C[C@@H](c2ccc(Cl)cc2)CC2=C1[C@H](c1cccnc1)Nc1ccccc1N2 [compound 483] | 15.5 µM | > 42.7 µM
CCn1c2ccccc2c2cc([C@@H]3Nc4ccccc4NC4=C3C(=O)C[C@@H](c3ccccc3)C4)ccc21 [compound 484] | 6.65 µM | > 42.7 µM
COc1ccc([C@@H]2CC(=O)C3=C(C2)Nc2ccccc2N[C@H]3c2cc3c(cc2[N+](=O)[O-])OCO3)cc1 [compound 485] | 3.39 µM | > 42.7 µM
COc1ccc([C@@H]2CC(=O)C3=C(C2)Nc2ccccc2N[C@H]3c2cc3c(cc2Br)OCO3)cc1 [compound 486] | 3.31 µM | > 42.7 µM
COc1ccc([C@@H]2CC(=O)C3=C(C2)Nc2ccccc2N[C@H]3c2cc3c(cc2[N+](=O)[O-])OCO3)cc1OC [compound 487] | 3.15 µM | > 42.7 µM
O=C1C[C@@H](c2ccccc2)CC2=C1[C@H](c1coc3ccccc3c1=O)Nc1ccccc1N2 [compound 488] | 17.8 µM | > 42.7 µM
COc1ccc([C@@H]2CC(=O)C3=C(C2)Nc2ccccc2N[C@H]3c2c[nH]c3ccccc23)cc1 [compound 489] | 5.91 µM | > 42.7 µM
COc1ccc([C@@H]2CC(=O)C3=C(C2)Nc2ccccc2N[C@H]3c2ccc(C)s2)cc1 [compound 490] | 24.9 µM | > 42.7 µM
O=C1C[C@@H](c2ccccc2)CC2=C1[C@H](c1ccc3c(c1)OCO3)Nc1ccc(C(=O)c3ccccc3)cc1N2 [compound 491] | 12.1 µM | > 42.7 µM
O=C1C[C@@H](c2ccc3c(c2)OCO3)CC2=C1[C@H](c1ccc3c(c1)OCO3)Nc1ccccc1N2 [compound 492] | 11 µM | > 42.7 µM
O=C1C[C@@H](c2ccc3c(c2)OCO3)CC2=C1[C@H](c1cc3c(cc1Br)OCO3)Nc1ccccc1N2 [compound 493] | 1.3 µM | > 42.7 µM
COc1ccc([C@@H]2CC(=O)C3=C(C2)Nc2ccccc2N[C@H]3c2ccc3c(c2)OCO3)cc1OC [compound 494] | 21.7 µM | > 42.7 µM
COc1ccc([C@@H]2CC(=O)C3=C(C2)Nc2ccccc2N[C@H]3c2coc3ccccc3c2=O)cc1OC [compound 495] | 3.69 µM | > 42.7 µM
COc1ccc([C@@H]2CC(=O)C3=C(C2)Nc2ccccc2N[C@H]3c2cccc3ccccc23)cc1OC [compound 496] | 22.9 µM | > 42.7 µM
CC1(C)CC(=O)C2=C(C1)Nc1ccccc1NC2c1cccnc1 (stereo not shown) [compound 499] | > 32 µM | > 42.7 µM
CCn1c2ccccc2c2cc(C3Nc4ccccc4NC4=C3C(=O)CC(C)(C)C4)ccc21 (stereo not shown) [compound 501] | 19.8 µM | > 42.7 µM
CC1(C)CC(=O)C2=C(C1)Nc1ccccc1NC2c1coc2c(Cl)cc(Cl)cc2c1=O (stereo not shown) [compound 502] | 13.2 µM | > 42.7 µM
CCn1c2ccccc2c2cc(C3Nc4cc(C)c(C)cc4NC4=C3C(=O)CC(C)(C)C4)ccc21 (stereo not shown) [compound 504] | 17.1 µM | 39.1 µM
CC1(C)CC(=O)C2=C(C1)Nc1ccccc1NC2c1cc2c(cc1[N+](=O)[O-])OCO2 (stereo not shown) [compound 505] | 13.5 µM | > 42.7 µM
CN1c2ccccc2NC2=C(C(=O)CC(C)(C)C2)C1c1ccc(Cl)cc1Cl (stereo not shown) [compound 507, 11-(2,4-Dichlorophenyl)-2,3,4,5,10,11-hexahydro-3,3,10-trimethyl-1H-dibenzo[b,e][1,4]diazepin-1-one] | 4.63 µM | > 42.7 µM
CCN1c2ccccc2NC2=C(C(=O)CC(C)(C)C2)C1c1ccc(Cl)cc1Cl (stereo not shown) [compound 508, 11-(2,4-dichlorophenyl)-10-ethyl-2,3,4,5,10,11-hexahydro-3,3-dimethyl1H-dibenzo[b,e][1,4]diazepin-1-one] | 1.37 µM | > 42.7 µM
